What was measured:
Test in all cases: relative viability (nuclei count vs DMSO), 5 days (fraction); higher = more cells survive
[1] = compound: CC[C@@H]1C(=O)N(C)c2cnc(Nc3ccc(C(=O)NC4CCN(C)CC4)cc3OC)nc2N1C1CCCC1 [BI-2536] + CC(=O)Nc1cccc(-n2c(=O)n(C3CC3)c(=O)c3c(Nc4ccc(I)cc4F)n(C)c(=O)c(C)c32)c1 [Trametinib] (partner 0.02 µM)
Outline: (§1)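 Relative viability divides the nuclei count in treated wells by that in vehicle wells. Lung cancer cell lines were seeded in 1536-well plates, dosed by pin tool the next day, and fixed and stained after 5 days in one step with final 0.05% Triton X-100, 1% formaldehyde and 1 ug/ml Hoechst. Dosing was a single drug or a fixed anchor-drug dose plus five library-drug doses (not always all listed) in √10 steps, and values are medians of duplicate plates imaged at 4×.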

[2] = compound: CC1CC(=O)N(C2=CN=C(N=C2N1C3CCCC3)NC4=C(C=C(C=C4)C(=O)NC5CCN(CC5)C)OC)C [NPK76-II-72-1] + CS(=O)(=O)CCNCc1ccc(-c2ccc3ncnc(Nc4ccc(OCc5cccc(F)c5)c(Cl)c4)c3c2)o1 [Lapatinib] (partner 2 µM)
Outline: as §1

[3] = compound: CC[C@@H]1C(=O)N(C)c2cnc(Nc3ccc(C(=O)NC4CCN(C)CC4)cc3OC)nc2N1C1CCCC1 [BI-2536] + O=C(CCCCCCC(=O)Nc1ccccc1)NO [Vorinostat] (partner 1 µM)
Outline: as §1

[4] = compound: CC1CC(=O)N(C2=CN=C(N=C2N1C3CCCC3)NC4=C(C=C(C=C4)C(=O)NC5CCN(CC5)C)OC)C [NPK76-II-72-1] + C[C@]1(O)C[C@@H](c2nc(-c3ccc4ccc(-c5ccccc5)nc4c3)c3c(N)nccn32)C1 [Linsitinib] (partner 1 µM)
Outline: as §1

In the case of UMC-11, the relative viability ([1]; first compound 0.01 µM) is reported as 0.489, the relative viability ([1]; first compound 0.03162 µM) is reported as 0.637 and the relative viability ([1]; first compound 0.1 µM) is reported as 0.173. The relative viability ([1]; first compound 0.3162 µM) was 0.175, the relative viability ([1]; first compound 1 µM) was 0.521 and the relative viability ([2]; first compound 0.01 µM) was 0.923. It also gave a relative viability ([2]; first compound 0.03162 µM) of 1.07, a relative viability ([2]; first compound 0.1 µM) of 1.08 and a relative viability ([2]; first compound 0.3162 µM) of 0.782. The relative viability ([2]; first compound 1 µM) was 1.05, the relative viability ([3]; first compound 0.01 µM) was 0.343 and the relative viability ([3]; first compound 0.03162 µM) was 0.315. The relative viability ([3]; first compound 0.1 µM) was 0.187, the relative viability ([3]; first compound 0.3162 µM) was 0.18 and the relative viability ([3]; first compound 1 µM) was 0.145. The relative viability ([4]; first compound 0.01 µM) was 1, the relative viability ([4]; first compound 0.03162 µM) was 1.08 and the relative viability ([4]; first compound 0.1 µM) was 1. It also gave a relative viability ([4]; first compound 0.3162 µM) of 0.927 and a relative viability ([4]; first compound 1 µM) of 0.976.
